From paper doi:10.64898/2026.09.14.751502v1 (bioRxiv, 2026)

Target: RBP4 (Homo sapiens, UniProt P02753)
Settings: read-out: RBP4 – SPA IC50

Cc1cc(-c2nnn[nH]2)nc(N2C[C@H]3C[C@@H](c4ccccc4C(F)(F)F)C[C@H]3C2)n1 [BPN-15585]
IC50: 7.5 nM

O=C(c1nc2ncccn2n1)N1C[C@H]2C[C@@H](c3ccccc3OC(F)(F)F)C[C@H]2C1 [compound 93]
IC50: 41 nM
